# Values of other authors in patent US20140073694A1, “CYSTAMINE ANALOGUES FOR THE TREATMENT OF PARKINSON'S DISEASE” (UNIVERSITE LAVAL, priority 2011, published 2014).
# System: Huntington's disease patients
# Settings: cited from earlier work
structure (smiles),measurement,setting,value
NCCS.O=C(O)C(O)C(O)C(=O)O (centres unmarked) [cysteamine bitartrate],clinical efficacy,,clinical efficacy was not demonstrated
same,tolerable dose,dose escalation 10 to 70 mg/kg per day,20 mg/kg per day
